From US20070142317A1, “Topical composition for treatment of skin disorders” (QLT USA, Inc., priority 2003, published 2007)
“And” between values parts separate entries of the source, which are not always exact repeats. Equal entries are not always repeated. Where two headings read alike, the source gives them in different places. Each block holds one molecule with its values, some of them ahead of it.

How the values were obtained:
[1] = aqueous solution, cited from earlier work
[2] = test system: lymphocytes; conditions: same concentration of dCF, absence of dAdo, after 4 days of exposure; cited from earlier work
[3] = for times safer than the oncology dose: 40 grams each day, 7% penetration
Excerpt: (§1) Systemic absorption is a concern, because of the potential for serious adverse events, such as lymphopenia and renal toxicity. At oncology doses, these adverse reactions are usually minimized, but the therapeutic index is narrow. Another factor that plays a role in the safety of the formulation is the amount of product administered each day. Approximately 4 grams, 12 grams, and 40 grams of a topical formulation are estimated to cover 10%, 30%, and 100% of the body surface area.
as §1
as §1, with “Calculations of safety margins have been performed, based upon this assumption and the known toxicity profile of F-Ara-A when administered IV for oncology indications. Systemic” for “Systemic”
as §1

[4] = intravenous; cited from earlier work
[5] = Calculated concentration in the skin assuming 7% penetration
[6] = test system: hairy cell leukemia (HCL); conditions: cited from earlier work
[7] = test system: Jurkat cells; assay: Cytokine secretion by ELISA (Example 31); assay type: cell-based; conditions: drug 1 μM; for Cytokine Secretion IL-2 pg/ml Mean of 3 Replicates: PHA-activated cells
Procedure: In a search for a topical agent that can locally deplete levels of T-cells in the skin, apoptotic compounds were evaluated for their mechanisms of action. The ability that […] induce apoptosis by the same mechanisms was examined by cytokine secretion. […] At the end of the treatment period, the cells were harvested and Caspase-3 induction was determined using a flow-cytometry-based method to quantify the percentage of cells that induced Caspase-3. The level of apoptosis is expressed as “% FITC shift”. Cytokine secretion (IL-2, IL-6, TNF, and IFN-γ) was measured at the same time by ELISA and is expressed in pg/mL.

[8] = test system: U-937 cells; assay: Cytokine secretion by ELISA (Example 31); assay type: cell-based; conditions: drug 1 μM; for Cytokine Secretion IL-6 pg/ml Mean of 3 Replicates: LPS-activated cells
Procedure: In a search for a topical agent that can locally deplete levels of T-cells in the skin, apoptotic compounds were evaluated for their mechanisms of action. The ability that […] induce apoptosis by the same mechanisms was examined by cytokine secretion. […] Caspase-3 and cytokine (IL-2, IL-6, TNF, and IFN-γ) levels were determined and compared to controls at 23 and 46 hours. FdA was incorporated to evaluate the effect of the halogen group and Ara-C for its overlapping mechanisms of action. […] At the end of the treatment period, the cells were harvested and Caspase-3 induction was determined using a flow-cytometry-based method to quantify the percentage of cells that induced Caspase-3. The level of apoptosis is expressed as “% FITC shift”. Cytokine secretion (IL-2, IL-6, TNF, and IFN-γ) was measured at the same time by ELISA and is expressed in pg/mL. […]

[9] = target: dGK (Homo sapiens, UniProt Q16854); conditions: read-out: Km for dGK; cited from earlier work
[10] = test system: U-937 cells; conditions: Niiitsu et al 2000; cited from earlier work
[11] = test system: chronic lymphocytic leukemia (CLL); conditions: 25 mg/m^2 every day for 5 days; cited from earlier work
[12] = test system: monocytes; conditions: read-out: concentration that causes 50% inhibition of monocytes; cited from earlier work

Sequence of dGK (Q16854 40-277, species assumed): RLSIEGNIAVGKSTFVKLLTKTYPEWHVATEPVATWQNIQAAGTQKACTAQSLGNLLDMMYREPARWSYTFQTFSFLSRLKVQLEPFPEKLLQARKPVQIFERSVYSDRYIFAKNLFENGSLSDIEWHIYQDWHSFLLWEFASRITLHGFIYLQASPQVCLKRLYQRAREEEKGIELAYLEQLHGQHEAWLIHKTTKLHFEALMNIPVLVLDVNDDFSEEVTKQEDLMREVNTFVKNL

Concentration in the skin assuming 7% penetration ([5]; topical concentration 0.00001%): 30 nM | Concentration in the skin assuming 7% penetration ([5]; topical concentration 0.00005%): 130 nM | Concentration in the skin assuming 7% penetration ([5]; topical concentration 0.0001%): 260 nM | Concentration in the skin assuming 7% penetration ([5]; topical concentration 0.001%): 2610 nM | Concentration in the skin assuming 7% penetration ([5]; topical concentration 0.01%): 26090 nM | Concentration in the skin assuming 7% penetration ([5]; topical concentration 0.1%): 260930 nM
SMILES: OC[C@H]1O[C@@H](n2cnc3c2NC=NC[C@H]3O)C[C@@H]1O [dCF, (R)-3-(2-Deoxy-β-D-erythro-pentofuranosyl)-3,6,7,8-tetrahydroimidazo[4,5-d][1,3]diazepin-8-ol]
t50 ([1]; pH 1, 25° C.): 5.6 min | t50 ([1]; pH 5.0, 25° C.): about 3.5 days | t50 ([1]; pH 7.5, 25° C.): approximately 70 days | t50 ([1]; pH 12.6, 25° C.): approximately 45 days | growth inhibition [2]: 0-10% | safety margin (times safer than the oncology dose) [3]: 1.8 | drug recovered in the urine [4]: Approximately 96% | time to complete remissions, on average ([6]; 4 mg/m^2 every 14 days): 6 months

times safer than the oncology dose ([3]; topical 0.00001%): 23000 | systemic exposure per day ([3]; topical 0.1% (1.0 mg/g), 10% BSA (4 grams), 7% systemic absorption): 0.28 mg | systemic exposure per day ([3]; topical 0.1% (1.0 mg/g), 30% BSA (12 grams), 7% systemic absorption): 0.84 mg | systemic exposure per day ([3]; topical 0.1% (1.0 mg/g), 100% BSA (40 grams), 7% systemic absorption): 2.8 mg | concentration achieved in the skin assuming 7% penetration ([5]; topical 0.00001% (0.0001 mg/g)): approximately 25 nM | Concentration in the skin assuming 7% penetration ([5]; topical concentration 0.00001%): 20 nM | Concentration in the skin assuming 7% penetration ([5]; topical concentration 0.00005%): 120 nM | Concentration in the skin assuming 7% penetration ([5]; topical concentration 0.0001%): 250 nM | Concentration in the skin assuming 7% penetration ([5]; topical concentration 0.001%): 2450 nM | Concentration in the skin assuming 7% penetration ([5]; topical concentration 0.01%): 24500 nM | Concentration in the skin assuming 7% penetration ([5]; topical concentration 0.1%): 245010 nM
SMILES: Nc1nc(Cl)nc2c1ncn2[C@H]1C[C@H](O)[C@@H](CO)O1 [CdA, 2-chloro-2′-deoxyadenosine]
Cytokine Secretion IL-2 pg/ml Mean of 3 Replicates ([7]; 23 hr): 51 pg/mL | Cytokine Secretion IL-2 pg/ml Mean of 3 Replicates ([7]; 46 hr): 105 pg/mL | IL-2 concentration ([7]; Jurkat cells activated by PHA, 46 hours): 105 pg/mL | Cytokine Secretion IL-6 pg/ml Mean of 3 Replicates ([8]; 23 hr): 7 pg/mL | effect on suppressing the production of IL-6 ([8]; 46 hours): little effect | Cytokine Secretion IL-6 pg/ml Mean of 3 Replicates ([8]; 46 hr): 8 pg/mL and 7 pg/mL | Km [9]: 80 µM | safety factor ([3]; 0.00005%, 30% of body surface area (10.8 grams/day), 7% systemic absorption): 17,142 | safety margin (times safer than the oncology dose) ([3]; topical 0.1% (1.0 mg/g), 10% BSA (4 grams per day), 7% systemic absorption): 23 | safety margin (times safer than the oncology dose) ([3]; topical 0.1% (1.0 mg/g), 30% BSA (12 grams per day), 7% systemic absorption): 7.7 | safety margin (times safer than the oncology dose) ([3]; topical 0.1% (1.0 mg/g), 100% BSA (40 grams per day), 7% systemic absorption): 2.3 | concentration toxic to U-937 cells on its own [10]: 0.1 µM | time to responses and complete remissions ([6]; 3.6 mg/m^2 every day for 7 days): ≤ 1 week

SMILES: Nc1nc(F)nc2c1ncn2[C@@H]1O[C@H](CO)C(O)C1O (stereo partly drawn) [F-Ara-A, 2-fluoroadenine-9β-D-Arabinofuranoside]
times safer than the oncology dose ([3]; topical 0.0002%): 8036 | safety margin (times safer than the oncology dose) ([3]; topical 1.0% (10 mg/g), 10% BSA (4 grams per day), 7% systemic absorption): 16 | systemic exposure per day ([3]; topical 1.0% (10 mg/g), 10% BSA (4 grams), 7% systemic absorption): 2.8 mg | safety margin (times safer than the oncology dose) ([3]; topical 1.0% (10 mg/g), 30% BSA (12 grams per day), 7% systemic absorption): 5.4 | systemic exposure per day ([3]; topical 1.0% (10 mg/g), 30% BSA (12 grams), 7% systemic absorption): 8.4 mg | safety margin (times safer than the oncology dose) ([3]; topical 1.0% (10 mg/g), 100% BSA (40 grams per day), 7% systemic absorption): 1.6 | systemic exposure per day ([3]; topical 1.0% (10 mg/g), 100% BSA (40 grams), 7% systemic absorption): 28 mg | concentration achieved in the skin assuming 7% penetration ([5]; topical 0.0002% (0.002 mg/g)): approximately 0.5 μM | time to complete remissions, on average [11]: 3 months | IC50 [12]: 500 nM
